Assay results: US6379670B1, “Methods for treatment of multiple sclerosis using peptide analogs of human myelin basic protein” (Neurocrine Biosciences, Inc., priority 1994, dated 2002)
Non-standard residues stand in square brackets, D forms with d. No end group written: not given here.

What was measured:
[1] = system: NBI-5788- or MBP-reactive TCL from MS patients; assay: Cytokine secretion (IFN-γ, IL-5) by TCL from MS patients, ELISA; assay type: in vivo, human
Procedure: To more fully characterize the nature of the immune response generated following APL administration, proliferating NBI-5788- or MBP-reactive TCL were established from untreated or NBI-5788-treated MS patients. […] Levels of Th2 cytokine IL-5 and Th1 cytokine IFN-γ were measured in culture supernatants collected 48 hours after stimulation with the selecting antigen, either NBI-5788 or whole MBP. Cytokines produced by T cell lines were assayed by ELISA. To measure cytokine levels, a sandwich ELISA method was used as follows: Nunc Maxisorp microtiter plates (Nalge Nunc, Denmark) were coated with capture mAb (Pharmingen, San Diego, Calif.) at 2 μg/ml for IL-4, IL-10, IL-13 and IFN-γ or at 1 μg/ml for IL-5. The capture mAb was diluted with 0.1 M NaHCO3 dispensed on the plate and incubated at 4° C. overnight. Plates were then blocked for at least 30 minutes at RT with 1% BSA (Sigma, St. Louis, Mo.) for IL-4, IL-5, IL-10 and IL-13 or 1% casein (Sigma) for IFN-γ. Standards were serially diluted (1000-1 pg/ml for IL-4 and 4000-5.5 pg/ml for IL-5, IL-10, IL-13 and IFN-γ) in blocking buffer and added to the plate. Samples were diluted at least 1:2 in blocking buffer and added to the plate. The plates were incubated at room temperature for one hour. The plates were washed and the biotinylated detection mAb (Pharmingen) was added to the plates at 1 μg/ml for IL-5 and IFN-γ or 2 μg/ml for IL-4, L-10, and IL-13. The plates were incubated for 1.5 hours at RT. After washing the plates streptavidin-peroxidase (Pierce, Rockford, Ill.) was added at 1 μg/ml for IL-5, IL-10, and IL-13 or 2 μg/ml for IL-4 and IFN-γ. The plates were incubated for 20-30 minutes. After washing thoroughly, TMB (Calbiochem, San Diego, Calif.) was added and the color was allowed to develop. The reaction was stopped by 0.2N H2SO4 and absorbance at 450 nm was determined. The association between cytokine phenotype and NBI-5788 treatment was evaluated by χ^2 contingency analysis. Mean cytokine secretion levels were compared using MannWhitney U test for non-parametric data. Probability values≦0.05 were considered significant.

[2] = system: peripheral blood mononuclear cells; assay: Frequency of antigen-reactive T cells in PBMC of untreated MS patients and healthy donors (split-well); assay type: cell-based, human; design: mean frequency of antigen-reactive T cells / frequency of antigen-reactive T cells in healthy subjects / antigen-reactive T cells, % Positive: concentration or dose not given beside the values
Procedure: Immune response to the peptide analog was assessed by measuring the frequency of proliferating peripheral blood T cells using a split-well microtiter method (i.e., number of positive wells {Δ cpm >1000, stimulation index>3} divided by the total number of wells assayed). Peripheral blood mononuclear cells (PBMC) were isolated from venous blood by Ficoll-Hypaque density gradient centrifugation, washed twice and resuspended in complete tissue culture medium (Iscove's modification of Dulbecco's medium containing 10% heat-inactivated, pooled, human A-B serum, 2 mM L-glutamine, 100 U/ml penicillin/streptomycin and 50 μg/ml gentamycin). PBMC from each patient were seeded at 10^5/well in 96 well, U-bottom microtiter plates containing 25 μg/ml whole MBP, 10 μg/ml NBI-5788 or medium alone in a volume of 200 μl. Three days later supernatants were collected and frozen at −80° C. and fresh medium containing IL-2 (10 U/ml) was added. IL-2-containg medium was refreshed on Day 7 and Day 11. On Day 14, the frequency of antigen response was determined by the “split well” technique. Briefly, cells from one primary well were split into replicate experimental wells in the presence of 10^5 freshly isolated autologous, irradiated peripheral blood mononuclear cells (APCs): one containing the original antigen (25 μg/ml) and one without antigen. Two days later supernatants were collected and the wells pulsed with 1 µCi/well [^3H]-thymidine ([…]) for the final 18 hours of culture. ^3H-Thymidine uptake was measured in a beta counter. […] The association between T cell frequency and NBI-5788 treatment was evaluated by χ^2 contingency analysis.

[3] = system: draining lymph node T cells of SJL mice; assay: Induction of Th2 response in SJL mice, ex vivo lymph node cell proliferation; design: species or system mouse
Procedure: SJL/J female mice (3 per group) were injected weekly on days 0, 7, 14 and 21 subcutaneously with 20 mg/kg of NBI-5788 in the flanks. On day 28, the mice were sacrificed, the draining lymph node removed, a single cell suspension was made and the ability of the cells to proliferate in response to 25 μM NBI-5788 was determined. The data, shown in FIG. 28, represent the mean of triplicate wells.

[4] = subject MS-2, untreated MS patient
[5] = subject MS-3, untreated MS patient
[6] = subject MS-7, untreated MS patient
[7] = subject MS-8, untreated MS patient
[8] = subject MS-9, untreated MS patient
[9] = subject MS-10, untreated MS patient
[10] = subject MS-11, untreated MS patient

MBP(83-99) (83E>a, 84N>K, 89F>L, and 91K>A) ([dA]KPVVHLFANIVTPRTP) [NBI-5788]
MBP-reactive TCL from APL-treated MS patients that secreted more IL-5 than IFN-γ ([1]; 13 of 23 TCL): 56%
APL-reactive TCL from APL-treated MS patients that secreted more IL-5 than IFN-γ ([1]; 19 of 32 TCL): 59%
change of mean IFN-γ secretion of MBP-reactive and APL-reactive T cell lines, APL-treated compared to non-treated MS patients ([1]; FIGS. 31A and 31B): significant (p<0.05) decrease
cytokine phenotype of NBI-5788-reactive TCL from APL-treated versus untreated MS patients ([1]; secreting more IL-5 than IFN-γ): more Th2-like
change of mean IL-5 secretion of TCL, APL-treated compared to non-treated MS patients ([1]; significant (p<0.05) for APL-reactive TCL, but not for MBP-reactive TCL): concomitant increase
antigen-reactive T cells, Positive/total wells ([2]; Total of healthy donors): 0/96
antigen-reactive T cells, Positive/total wells ([2]; Total of untreated MS patients): 19/308
antigen-reactive T cells, % Positive ([2]; healthy donor HD-1): 0%
antigen-reactive T cells, Positive/total wells ([2]; healthy donor HD-1): 0/48
antigen-reactive T cells, % Positive ([2]; healthy donor HD-2): 0%
antigen-reactive T cells, Positive/total wells ([2]; healthy donor HD-2): 0/48
antigen-reactive T cells, % Positive [2, 4]: 6.8%
antigen-reactive T cells, Positive/total wells [2, 4]: 3/44
antigen-reactive T cells, % Positive [2, 5]: 2.3%
antigen-reactive T cells, Positive/total wells [2, 5]: 1/44
antigen-reactive T cells, % Positive [2, 6]: 6.8%
antigen-reactive T cells, Positive/total wells [2, 6]: 3/44
antigen-reactive T cells, % Positive [2, 7]: 11.4%
antigen-reactive T cells, Positive/total wells [2, 7]: 5/44
antigen-reactive T cells, % Positive [2, 8]: 9.1%
antigen-reactive T cells, Positive/total wells [2, 8]: 4/44
antigen-reactive T cells, % Positive [2, 9]: 4.5%
antigen-reactive T cells, Positive/total wells [2, 9]: 2/44
antigen-reactive T cells, % Positive [2, 10]: 2.3%
antigen-reactive T cells, Positive/total wells [2, 10]: 1/44
frequency of antigen-reactive T cells in healthy subjects ([2]; two healthy subjects, MBP-reactive cells detected in one of two): no NBI-5788-reactive T cells were detected
mean frequency of antigen-reactive T cells ([2]; untreated MS patients (n=7)): 6.2±1.3%
immune response induced by repeated dosing ([3]; 20 mg/kg subcutaneously on days 0, 7, 14 and 21, ex vivo proliferation to 25 μM NBI-5788, FIG. 28): induces a Th2 response
response with successive weekly doses ([3]; four doses at weekly intervals): stronger response after each subsequent dose
